Holding throughout (format): in vivo, Glycine max
Experiment [1] deals with AAD1 GLXMA (HT variety soybean). Kind of experiment: Greenhouse evaluation of broadleaf volunteer crop control, AAD1 soybean. The following applies: 2 to 3 leaf stage, after 21 days, 0 no injury, 100 complete kill. As to the method: (§1) Test plants were grown in METRO-MIX® 360 (SunGro Horticulture, Bellevue, Wash.) in 132.7 square centimeters (cm^2) plastic pots for 7-21 days in a greenhouse with an approximate 15 hour (h) photoperiod which was maintained at about 23-29° C. during the day and 22-28° C. during the night. Plants were grown to the 2 to 3 leaf stage prior to applications. Both conventional soybean crops varieties, Maverick and Resnick, and herbicide resistant (HT) varieties AAD12, AAD1, and ROUNDUP® ready soybean crops were treated.
(§2) A weighed amount, determined by the highest rate to be tested, of each test compound was placed in a 25 milliliter (mL) glass vial and was dissolved in 4 mL of a 97:3 v/v (volume/volume) mixture of acetone and dimethyl sulfoxide (DMSO), which will be referred to as General Purpose Solvent (GPS), to obtain concentrated stock solutions. […] The concentrated stock solutions obtained were diluted with 20 mL of an aqueous mixture containing water, GPS, isopropyl alcohol, ATPLUS® 411F crop oil concentrate, and TRITON® X-155 surfactant in a 46:42:12:1.0:0.02 v/v ratio to obtain spray solutions containing the highest application rates. Additional application rates were obtained by serial dilution of 12 mL of the high rate solution into a solution containing 2 mL of 97:3 v/v (volume/volume) mixture of acetone and dimethyl sulfoxide (DMSO) and 10 mL of an aqueous mixture containing water, GPS, isopropyl alcohol, ATPLUS® 411F crop oil concentrate, and TRITON® X-155 surfactant in a 46:42:12:1.0:0.02 v/v ratio to obtain 1/2X, 1/4X, 1/8X and 1/16X rates of the high rate (X). Compound requirements are based upon a 12 mL application volume at a rate of 187 L/ha. Formulated compounds were applied to the plant material with an overhead Mandel track sprayer equipped with 8002E nozzles calibrated to deliver 187 L/ha over an application area of 0.503 square meters (m^2) at a spray height of 18 inches (43 cm) above the average plant canopy height. Control plants were sprayed in the same manner with the solvent blank. The treated plants and control plants were placed in a greenhouse as described above and watered by sub-irrigation to prevent wash-off of the test compounds. After 21 days, the condition of the test plants as compared with that of the control plants was determined visually and scored on a scale of 0 to 100 percent where 0 corresponds to no injury and 100 corresponds to complete kill, and results are listed in Table 1 along with active ingredients and their respective formulations. Each score in Table 1 represents an average obtained from results of three representative experiments.

In experiment [2] the test system is Maverick GLXMA (conventional soybean). Kind of experiment: Greenhouse evaluation of broadleaf volunteer crop control, Maverick soybean. As to conditions: Glycine max, 504 h, read-out: Average Percent Crop Control after Treatment, Maverick GLXMA. Here is the method:
as §1, §2
(§3) Additional formulations with different 6-arylpicolinates were tested in the greenhouse on Maverick and RoundUp-ready soybean crops using the procedure described above. Each score in Table 2 represents an average obtained from results of three representative experiments.

Experiment [3] relates to AAD12 GLXMA (HT variety soybean). Kind of experiment: Greenhouse evaluation of broadleaf volunteer crop control, AAD12 soybean. The following applies: 2 to 3 leaf stage, after 21 days, 0 no injury, 100 complete kill. Here is the method:
as §1, §2

The subject of experiment [4] is Resnick GLXMA (conventional soybean). Kind of experiment: Greenhouse evaluation of broadleaf volunteer crop control, Resnick soybean. As to conditions: 2 to 3 leaf stage, after 21 days, 0 no injury, 100 complete kill. Here is the method: as §1, §2
The subject of experiment [5] is RoundUp Ready GLXMA (HT variety soybean). Kind of experiment: Greenhouse evaluation of broadleaf volunteer crop control, RoundUp ready soybean. The following applies: Glycine max, 504 h, greenhouse, 2 to 3 leaf stage, after 21 days, 0 no injury, 100 complete kill, read-out: Average Percent Crop Control after Treatment, RoundUp Ready GLXMA. As to the method:
as §1, §2, §3

Read-outs that look alike come from different tables or passages of the source.

Take `COc1c(Cl)ccc(-c2cc(N)c(Cl)c(C(=O)[O-])n2)c1F.[K+]` [drawing 12]: the “Average Percent Crop Control after Treatment, AAD1 GLXMA” value in experiment [1] (1.1 g ae/ha), in experiment [1] (2.2 g ae/ha), in experiment [1] (4.4 g ae/ha), in experiment [1] (8.75 g ae/ha) and in experiment [1] (17.5 g ae/ha) was 100% each time. The pest or weed control at 1.1 g/ha in experiment [2] is 97%. Besides, the “Average Percent Crop Control after Treatment, AAD12 GLXMA” value in experiment [3] (1.1 g ae/ha), in experiment [3] (2.2 g ae/ha), in experiment [3] (4.4 g ae/ha), in experiment [3] (8.75 g ae/ha) and in experiment [3] (17.5 g ae/ha) was 100% each time. In addition, the “Average Percent Crop Control after Treatment, Resnick GLXMA” value in experiment [4] (1.1 g ae/ha) came to 99%; in experiment [4] (2.2 g ae/ha) it was 100%; in experiment [4] (4.4 g ae/ha), 100%; in experiment [4] (8.75 g ae/ha) it was 100%; in experiment [4] (17.5 g ae/ha) it was 100%.
For `COc1c(Cl)ccc(-c2nc(C(=O)O)c(Cl)c(N)c2F)c1F` [drawing 11], the “Average Percent Crop Control after Treatment, AAD1 GLXMA” value in experiment [1] (2.2 g ae/ha) is given as 87%; in experiment [1] (4.4 g ae/ha), 100%; in experiment [1] (8.75 g ae/ha) it was 100%; in experiment [1] (17.5 g ae/ha), 100%. Moreover, the pest or weed control at 2.2 g/ha came to 83% in experiment [5] (2.2 g ae/ha) and 95% in experiment [2] (2.2 g ae/ha, greenhouse, 2 to 3 leaf stage, after 21 days, 0 no injury, 100 complete kill). Moreover, the pest or weed control at 4.4 g/ha in experiment [5] (4.4 g ae/ha) was 93%; in experiment [2] (4.4 g ae/ha, greenhouse, 2 to 3 leaf stage, after 21 days, 0 no injury, 100 complete kill), 100%. Also, the pest or weed control at 8.75 g/ha in experiment [5] (8.75 g ae/ha) worked out at 100%; in experiment [2] (8.75 g ae/ha, greenhouse, 2 to 3 leaf stage, after 21 days, 0 no injury, 100 complete kill) it was 100%. Moreover, the pest or weed control at 17.5 g/ha in experiment [5] (17.5 g ae/ha) is 100%; in experiment [2] (17.5 g ae/ha, greenhouse, 2 to 3 leaf stage, after 21 days, 0 no injury, 100 complete kill) it was 100%. Further, the pest or weed control at 1.1 g/ha in experiment [2] (1.1 g ae/ha, greenhouse, 2 to 3 leaf stage, after 21 days, 0 no injury, 100 complete kill) was determined as 87%. In addition, the “Average Percent Crop Control after Treatment, AAD12 GLXMA” value in experiment [3] (1.1 g ae/ha) was 85%; in experiment [3] (2.2 g ae/ha), 93%; in experiment [3] (4.4 g ae/ha) it was 100%; in experiment [3] (8.75 g ae/ha) it was 100%; in experiment [3] (17.5 g ae/ha) it was 100%. Further, the “Average Percent Crop Control after Treatment, Resnick GLXMA” value in experiment [4] (1.1 g ae/ha) worked out at 83%; in experiment [4] (2.2 g ae/ha) it was 92%; in experiment [4] (4.4 g ae/ha), 100%; in experiment [4] (8.75 g ae/ha) it was 100%; in experiment [4] (17.5 g ae/ha) it was 100%.

The values above are taken from patent US10154667B2, “Broadleaf crop control with 6-arylpicoline carboxylic acids, 2-arylpyrimidine carboxylic acids, or salts or esters thereof” (Dow AgroSciences LLC, priority 2013, dated 2018).
